Compound: C1=CC2=NC=CN=C2C=C1/C=C/3\C(=O)NC(=O)S3 + N=C(N)NC(=N)NCCc1ccccc1 [Phenformin] (partner 250 µM)
Assay: relative viability (nuclei count vs DMSO), 5 days (fraction); higher = more cells survive
Conditions: first compound 0.02 µM
How it was run: (§1)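 A single step with final 0.05% Triton X-100, 1% formaldehyde and 1 ug/ml Hoechst fixed the cells and stained nuclei 5 days after treatment. Lung cancer cell lines in 1536-well plates had been treated by pin tool the day after seeding with one drug alone or a fixed anchor-drug dose plus five library-drug doses (not always all listed) in √10 steps, and nuclei were counted on 4× images. Relative viability is the ratio of nuclei in treated wells to nuclei in vehicle wells, taken as the median of duplicate plates.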

Cell Line	relative viability
HARA	0.451
HCC-78	0.597
NCI-H322M	0.744
LCLC-97TM1	0.389
NCI-H2009	0.507
A-427	0.291
NCI-H441	0.856
NCI-H661	0.239
NCI-H1734	0.392
NCI-H460	0.477
NCI-H2347	0.352
SK-LU-1	0.681
NCI-H1395	0.449
201T	0.448
NCI-H1915	0.354
HCC-827	0.481
LXF-289	0.491
NCI-H23	0.79
NCI-H647	0.587
CAL-12T	0.577
NCI-H1651	0.314
EPLC-272H	0.259
NCI-H2228	0.281
NCI-H1792	0.351
NCI-H1355	0.435
NCI-H3122	0.401
NCI-H1437	0.258

Same assay, conditions: first compound 0.06325 µM

Cell Line	relative viability
HARA	0.384
HCC-78	0.592
NCI-H322M	0.813
LCLC-97TM1	0.374
NCI-H2009	0.454
A-427	0.247
NCI-H441	1.06
NCI-H661	0.393
NCI-H1734	0.35
NCI-H460	0.619
NCI-H2347	0.322
SK-LU-1	0.628
NCI-H1395	0.449
201T	0.49
NCI-H1915	0.415
HCC-827	0.372
LXF-289	0.501
NCI-H23	0.716
NCI-H647	0.56
CAL-12T	0.479
NCI-H1651	0.321
EPLC-272H	0.302
NCI-H2228	0.329
NCI-H1792	0.177
NCI-H1355	0.374
NCI-H3122	0.356
NCI-H1437	0.286

Same assay, conditions: first compound 0.2 µM

Cell Line	relative viability
HARA	0.395
HCC-78	0.698
NCI-H322M	0.796
LCLC-97TM1	0.423
NCI-H2009	0.508
A-427	0.374
NCI-H441	0.84
NCI-H661	0.289
NCI-H1734	0.384
NCI-H460	0.536
NCI-H2347	0.422
SK-LU-1	0.552
NCI-H1395	0.47
201T	0.452
NCI-H1915	0.378
HCC-827	0.41
LXF-289	0.535
NCI-H23	0.825
NCI-H647	0.591
CAL-12T	0.562
NCI-H1651	0.325
EPLC-272H	0.371
NCI-H2228	0.445
NCI-H1792	0.465
NCI-H1355	0.489
NCI-H3122	0.379
NCI-H1437	0.369

Same assay, conditions: first compound 0.6325 µM

Cell Line	relative viability
HARA	0.428
HCC-78	0.698
NCI-H322M	0.776
LCLC-97TM1	0.432
NCI-H2009	0.482
A-427	0.332
NCI-H441	0.755
NCI-H661	0.298
NCI-H1734	0.343
NCI-H460	0.516
NCI-H2347	0.394
SK-LU-1	0.554
NCI-H1395	0.416
201T	0.495
NCI-H1915	0.371
HCC-827	0.427
LXF-289	0.526
NCI-H23	0.781
NCI-H647	0.384
CAL-12T	0.517
NCI-H1651	0.298
EPLC-272H	0.26
NCI-H2228	0.361
NCI-H1792	0.341
NCI-H1355	0.431
NCI-H3122	0.392
NCI-H1437	0.274

Same assay, conditions: first compound 2 µM

Cell Line	relative viability
HARA	0.422
HCC-78	0.368
NCI-H322M	0.669
LCLC-97TM1	0.162
NCI-H2009	0.461
A-427	0.261
NCI-H441	0.327
NCI-H661	0.249
NCI-H1734	0.279
NCI-H460	0.468
NCI-H2347	0.375
SK-LU-1	0.395
NCI-H1395	0.483
201T	0.323
NCI-H1915	0.375
HCC-827	0.455
LXF-289	0.478
NCI-H23	0.729
NCI-H647	0.437
CAL-12T	0.546
NCI-H1651	0.285
EPLC-272H	0.297
NCI-H2228	0.213
NCI-H1792	0.113
NCI-H1355	0.392
NCI-H3122	0.366
NCI-H1437	0.233

Compound: CCN1CCN(c2ccc(Nc3cc(N(C)C(=O)Nc4c(Cl)c(OC)cc(OC)c4Cl)ncn3)cc2)CC1 [BGJ398] + N=C(N)NC(=N)NCCc1ccccc1 [Phenformin] (partner 250 µM)
Assay: as above
Conditions: first compound 0.01 µM
How it was run: as §1

Cell Line	relative viability
HARA	0.442
HCC-78	0.67
NCI-H322M	0.791
LCLC-97TM1	0.393
NCI-H2009	0.454
A-427	0.354
NCI-H441	0.793
NCI-H661	0.286
NCI-H1734	0.368
NCI-H460	0.491
NCI-H2347	0.292
SK-LU-1	0.5
NCI-H1395	0.436
201T	0.45
NCI-H1915	0.374
HCC-827	0.323
LXF-289	0.536
NCI-H23	0.688
NCI-H647	0.454
CAL-12T	0.542
NCI-H1651	0.303
EPLC-272H	0.243
NCI-H2228	0.328
NCI-H1792	0.288
NCI-H1355	0.44
NCI-H3122	0.353
NCI-H1437	0.265

Same assay, conditions: first compound 0.03162 µM

Cell Line	relative viability
HARA	0.545
HCC-78	0.609
NCI-H322M	0.663
LCLC-97TM1	0.446
NCI-H2009	0.511
A-427	0.336
NCI-H441	0.642
NCI-H661	0.316
NCI-H1734	0.398
NCI-H460	0.565
NCI-H2347	0.602
SK-LU-1	0.556
NCI-H1395	0.433
201T	0.444
NCI-H1915	0.367
LXF-289	0.509
NCI-H23	0.904
NCI-H647	0.514
CAL-12T	0.621
NCI-H1651	0.394
EPLC-272H	0.283
NCI-H2228	0.32
NCI-H1792	0.233
NCI-H1355	0.465
NCI-H3122	0.387
NCI-H1437	0.34

Same assay, conditions: first compound 0.1 µM

Cell Line	relative viability
HARA	0.482
HCC-78	0.735
NCI-H322M	0.774
LCLC-97TM1	0.442
NCI-H2009	0.437
A-427	0.273
NCI-H441	0.848
NCI-H661	0.295
NCI-H1734	0.408
NCI-H460	0.622
NCI-H2347	0.507
SK-LU-1	0.58
NCI-H1395	0.368
201T	0.457
NCI-H1915	0.365
HCC-827	0.432
LXF-289	0.542
NCI-H23	0.811
NCI-H647	0.498
CAL-12T	0.599
NCI-H1651	0.381
EPLC-272H	0.272
NCI-H2228	0.243
NCI-H1792	0.259
NCI-H1355	0.454
NCI-H3122	0.373
NCI-H1437	0.314

Same assay, conditions: first compound 0.3162 µM

Cell Line	relative viability
HARA	0.319
HCC-78	0.731
NCI-H322M	0.696
LCLC-97TM1	0.429
NCI-H2009	0.374
A-427	0.151
NCI-H441	0.879
NCI-H661	0.302
NCI-H1734	0.376
NCI-H460	0.472
NCI-H2347	0.434
SK-LU-1	0.367
NCI-H1395	0.393
201T	0.382
NCI-H1915	0.354
HCC-827	0.317
LXF-289	0.473
NCI-H23	0.761
NCI-H647	0.455
CAL-12T	0.579
NCI-H1651	0.325
EPLC-272H	0.247
NCI-H2228	0.299
NCI-H1792	0.315
NCI-H1355	0.464
NCI-H3122	0.339
NCI-H1437	0.268

Same assay, conditions: first compound 1 µM

Cell Line	relative viability
HARA	0.382
HCC-78	0.607
NCI-H322M	0.845
LCLC-97TM1	0.44
NCI-H2009	0.45
A-427	0.211
NCI-H441	1.01
NCI-H661	0.291
NCI-H1734	0.432
NCI-H460	0.465
NCI-H2347	0.496
SK-LU-1	0.491
NCI-H1395	0.373
201T	0.386
NCI-H1915	0.367
HCC-827	0.413
LXF-289	0.502
NCI-H23	0.756
NCI-H647	0.411
CAL-12T	0.642
NCI-H1651	0.274
EPLC-272H	0.38
NCI-H2228	0.28
NCI-H1792	0.262
NCI-H1355	0.423
NCI-H3122	0.347
NCI-H1437	0.281
